Experimental data as given in PMC4336144, “Screening the Medicines for Malaria Venture "Malaria Box" against the Plasmodium falciparum Aminopeptidases, M1, M17 and M18” (PLoS ONE, 2015).

What was measured:
[1] = tested on: PfA-M1 and/or PfA-M17; assay: Multiplex primary screen, fluorogenic substrate Leu-Mec; format: biochemical, Plasmodium falciparum; conditions: 100 μM compound, multiplex assay
Protocol: A multiplex enzyme assay was developed to complete the primary screen of 400 compounds that were provided to us by MMV and SCYNEXIS. Combined PfMAP (15 nM PfA-M1; 80 nM PfA-M17 and 125 nM PfM18AAP) aminopeptidase activity in the presence of a single MMV compound (100 μM solubilized in 100% dimethyl sulfoxide, DMSO, final DMSO concentration in assay = 10%) was determined by simultaneous measurement of the release of the fluorogenic leaving group, -NHMec, from L-Leucine-7-amido-4-methylcoumarin-HCl (Leu-Mec) (Sigma) as well as the hydrolysis of p-nitroanilide from the chromogenic substrate, L-Glutamic acid p-nitroanilide (Glu-pNA) (Sigma). The fluorogenic substrate records the combined activity of PfA-M1 and PfA-M17 while the p-nitroanilide substrate is specific for PfM18AAP. Reactions were carried out in 96-well microtitre plates (200 μL total volume) in 50 mM Tris-HCl pH 8.0, 2 mM CoCl2 at 37°C. Following a 10 min incubation (multi-enzyme and single compound) at 37°C, reactions were initiated by addition of both fluorogenic and chromagenic substrates. Progress curves were monitored using a FLUOstar Omega multimode reader (BMG LabTech) for 1.5 h at 37°C. As activity references, individual enzyme and multiple enzyme 'no compound' controls and 'positive inhibitor' controls (with 10% DMSO) were included in each 96 well plate assay.

[2] = biological target: T1, PfA-M1 (Plasmodium falciparum, UniProt O96935); assay: Secondary screening against individual enzyme; format: biochemical; conditions: 100 μM compound; for reduction of PfA-M1 activity: n = 3
T1 construct: made in house; host or cells: Escherichia coli
T1 sequence (O96935 195-1085 limits assumed): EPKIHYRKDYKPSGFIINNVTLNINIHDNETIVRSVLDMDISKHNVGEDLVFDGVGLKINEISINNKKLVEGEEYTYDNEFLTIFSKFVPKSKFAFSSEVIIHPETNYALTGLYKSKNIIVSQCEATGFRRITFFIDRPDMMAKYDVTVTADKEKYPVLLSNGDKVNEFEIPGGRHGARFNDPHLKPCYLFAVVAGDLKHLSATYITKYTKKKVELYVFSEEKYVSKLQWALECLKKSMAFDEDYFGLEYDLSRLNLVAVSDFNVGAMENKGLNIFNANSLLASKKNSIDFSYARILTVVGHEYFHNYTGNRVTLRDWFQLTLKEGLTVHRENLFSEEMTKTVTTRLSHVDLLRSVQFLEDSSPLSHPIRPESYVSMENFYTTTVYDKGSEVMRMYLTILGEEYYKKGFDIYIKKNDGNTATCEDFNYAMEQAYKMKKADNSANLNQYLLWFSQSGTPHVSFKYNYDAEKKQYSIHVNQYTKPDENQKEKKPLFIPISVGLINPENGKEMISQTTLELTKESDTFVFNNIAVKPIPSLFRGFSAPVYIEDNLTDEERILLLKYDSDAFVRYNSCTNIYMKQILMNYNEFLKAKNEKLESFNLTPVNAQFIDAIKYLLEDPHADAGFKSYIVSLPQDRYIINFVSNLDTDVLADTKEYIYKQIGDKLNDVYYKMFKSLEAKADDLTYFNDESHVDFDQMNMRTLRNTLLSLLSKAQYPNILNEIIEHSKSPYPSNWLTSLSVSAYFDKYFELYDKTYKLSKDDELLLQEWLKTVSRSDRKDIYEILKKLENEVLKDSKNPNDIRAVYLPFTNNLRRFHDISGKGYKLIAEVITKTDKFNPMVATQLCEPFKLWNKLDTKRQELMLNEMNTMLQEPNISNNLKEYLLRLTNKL
Protocol: Aminopeptidase activity of each individual enzyme in the presence of a single MMV compound (100 μM) was determined using Leu-Mec for both PfA-M1 (15 nM) and PfA-M17 (80 nM) or Glu-pNA for PfM18AAP (125 nM). Reactions were carried out in 96-well microtitre plates (200 μl total volume) in 50 mM Tris-HCl pH 8.0, 2 mM CoCl2 at 37°C. Following a 10 min incubation (enzyme and compound) at 37°C, reactions were initiated by addition of enzyme specific substrate. Progress curves were monitored using a FLUOstar Omega multimode reader (BMG LabTech) for 1.5 h at 37°C. As activity references, individual enzyme 'no compound' controls and 'positive inhibitor' controls were included in each 96 well plate assay. We applied a cut-off of < 10% activity in the presence of 100 μM compound for selection to the next phase. Compounds that were selected to proceed were then used in further assays to obtain n = 3.

[3] = biological target: T2, PfA-M17 (Plasmodium falciparum, UniProt Q8IL11); assay: Determination of Ki values (Dixon plots, H-Leu-NHMec); format: biochemical; conditions: for loss in inhibitory activity against PfA-M17: compared to parent MMV020750
T2 construct: made in house; host or cells: Escherichia coli
T2 sequence (Q8IL11 84-605 limits assumed): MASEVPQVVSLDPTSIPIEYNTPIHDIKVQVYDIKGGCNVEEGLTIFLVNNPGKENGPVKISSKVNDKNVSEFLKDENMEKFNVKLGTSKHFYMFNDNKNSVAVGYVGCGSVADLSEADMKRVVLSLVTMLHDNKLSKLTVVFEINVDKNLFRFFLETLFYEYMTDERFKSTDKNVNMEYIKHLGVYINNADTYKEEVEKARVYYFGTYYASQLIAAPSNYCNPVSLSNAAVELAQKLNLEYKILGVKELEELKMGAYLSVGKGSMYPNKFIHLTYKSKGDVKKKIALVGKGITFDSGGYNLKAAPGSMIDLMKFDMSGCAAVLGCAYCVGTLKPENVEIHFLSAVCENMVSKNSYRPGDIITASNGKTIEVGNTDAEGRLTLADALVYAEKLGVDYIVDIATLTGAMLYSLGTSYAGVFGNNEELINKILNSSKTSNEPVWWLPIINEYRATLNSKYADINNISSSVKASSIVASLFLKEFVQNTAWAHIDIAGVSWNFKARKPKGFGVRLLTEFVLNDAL
Protocol: (§1) MMV020750 was purchased from InterBioScreen (catalog number STOCK2S-51608) and MMV666023 was purchased from ChemBridge (catalog number 5566248). The MMV020750 derivatives 1, 2 and 3 were purchased from Ambinter (catalog numbers AMB425981, AMB2311364 and AMB8506251 respectively). 4-(4,5-Diphenyl-1H-imidazol-2-yl)benzoic acid (4) was purchased from TCI Chemicals, while 4-(4,5-diphenyl-1H-imidazol-2-yl)-N-hydroxybenzamide (5) was prepared from 4 as described (S1 Methods). Aminopeptidase activity of both PfA-M1 and PfA-M17 enzymes was determined by measuring the release of the fluorogenic leaving group, NHMec, from the fluorogenic peptide L-Leucine-7-amido-4-methylcoumarin hydrochloride (H-Leu-NHMec) (Sigma L2145). The assay protocol devised by Stack CM, et al, (J. Biol Chem, 2007) was modified and used, with the reactions were carried out at 37°C and monitored using a spectrofluorometer (BMG FLUOstar) with excitation at 355 nm and emission at 460 nm. Each enzyme was pre-incubated in 50 mM Tris pH 8.0, 2 mM CoCl2; 5% DMSO with each inhibitor for 10 min prior to the addition of substrate. Inhibitor concentration was assayed between 0 and 500 μM final for each compound, and repeated over a narrowed range if necessary. The fluorescence signal was monitored until a final steady state velocity, V, was obtained. The K i values were then evaluated using Dixon plots of 1/V versus inhibitor concentration while the substrate concentration was maintained lower than that of the Km of the enzyme.
This was a particular problem with the PfA-M17 enzyme assays where we noted that at higher concentrations of 4, a decrease in fluorescence was observed. We hypothesise that this is a result of PfA-M17 binding to the compound and quenching the intrinsic fluorescence. […] We therefore chose to analyse a reduced concentration range for 4.

[4] = biological target: T1, PfA-M1; assay: as above; format: biochemical; conditions: for Ki PfA-M1 / Ki: Dixon plot; for Ki: read-out: Ki PfA-M1
Protocol: as §1

Structure (SMILES)	Activity (PfA-M1 and/or PfA-M17) [1]	further results
COc1ccc(C(=O)NC(c2ccccc2Cl)c2cc(Cl)c3cccnc3c2O)cc1 (centres unmarked) [MMV666022]	R	–
COc1cc(-c2nc(-c3ccc(Sc4ccccc4)cc3)c(-c3ccccc3)[nH]2)cc(OC)c1O [MMV007273]	R	PfA-M1 activity retained in the presence of compound ([2]; n = 3, of total enzyme activity): ~75%
Cc1ccnc(NC(c2cccc(OCc3ccccc3)c2)c2ccc3cccnc3c2O)c1 (centres unmarked) [MMV000720]	R	–
COC(=O)c1ccc(-c2nc(-c3ccccc3)c(-c3ccccc3)[nH]2)cc1 [Compound 3]	–	Ki ([3]; Dixon plot): 275 µM; loss in inhibitory activity against PfA-M17 [3]: > 10 fold; Ki PfA-M1 [4]: micromolar range; Ki [4]: 120 µM
CN(CCO)c1ccc(-c2nc(-c3ccccc3)c(-c3ccccc3)[nH]2)cc1 [Compound 1]	–	Ki ([3]; Dixon plot): > 500 µM; Ki [4]: > 500 µM
COc1ccc(/C=C2/SC(=Nc3ccccc3)NC2=O)cc1 [MMV665836]	R	–
CCOC(=O)c1c(NC(=O)c2ccccc2)sc2c(O)c(CN(CC)CC)ccc12 [MMV665831]	R	–
COc1cccc(C(=O)NC(c2ccc(C)cc2)c2cc(Cl)c3cccnc3c2O)c1 (centres unmarked) [MMV665969]	R	–
Nc1ccc(-c2nc3cc(Oc4ccc(Oc5ccc6[nH]c(-c7ccc(N)cc7)nc6c5)cc4)ccc3[nH]2)cc1 [MMV011895]	R	–
COc1cc(-c2nc(-c3ccccc3)c(-c3ccccc3)[nH]2)ccc1OCC(N)=O [Compound 2]	–	Ki ([3]; Dixon plot): > 500 µM; Ki [4]: > 500 µM
Cc1ccc(-c2cc(C(=O)Nc3ccc(S(=O)(=O)N4CCCCC4)cc3)[nH]n2)c(O)c1 [MMV665906]	R	–
COc1ccc2c(c1)OC(O)(C(F)(F)C(F)(F)F)CC2=O (centres unmarked) [MMV007839]	R	–
O=C(NNc1cc(N2CCCC2)nc(N2CCCC2)n1)c1ccccc1 [MMV396770]	R	–
Cc1cccc(N2C(=O)C3C(C2=O)C2(c4ccccc4)C(=O)C3(c3ccccc3)C(c3ccc4c(c3)OCO4)=C2c2ccc3c(c2)OCO3)c1 (centres unmarked) [MMV007228]	R	reduction of PfA-M1 activity [2]: 89%
COc1ccc(C=C2SC(=N)N(c3ccccc3OC)C2=O)cc1 [MMV666691]	R	–
O=C(NO)c1ccc(-c2nc(-c3ccccc3)c(-c3ccccc3)[nH]2)cc1 [Compound 5, 4-(4,5-diphenyl-1H-imidazol-2-yl)-N-hydroxybenzamide]	–	Ki ([3]; Dixon plot): 187 µM; loss in inhibitory activity against PfA-M17 [3]: > 10 fold; Ki PfA-M1 [4]: micromolar range; Ki [4]: 34 µM
OCCNc1nc(Nc2ccc(Cl)c(Cl)c2)nc2ccccc12 [MMV001041]	R	–
COc1ccc(C=C2SC(Nc3ccc(F)cc3)=NC2=O)c(OC)c1 [MMV084434]	R	–
COc1ccc(C(=O)NC(c2ccc(Cl)cc2Cl)c2cc(Cl)c3cccnc3c2O)cc1 (centres unmarked) [MMV666054]	R	reduction of PfA-M1 activity [2]: 87%
CN(C)c1ccc(C=Cc2nc(=O)c3ccccc3o2)cc1 [MMV006309]	R	–
O=C(O)c1ccc(-c2nc(-c3ccccc3)c(-c3ccccc3)[nH]2)cc1 [Compound 4, 4-(4,5-Diphenyl-1H-imidazol-2-yl)benzoic acid]	–	Ki ([3]; Dixon plot): 20 to 40 µM; Ki PfA-M17 ([3]; Dixon plot): micromolar range; Ki [4]: 5.2 µM; increase in potency against PfA-M1 ([4]; compared to MMV020750): > 10 fold
Oc1ccc(-c2nc(-c3ccc4oc5ccc(-c6[nH]c(-c7ccc(O)cc7)nc6-c6ccccc6)cc5c4c3)c(-c3ccccc3)[nH]2)cc1 [MMV000753]	R	–
COc1ccc(CCN2C(=O)c3[nH]nc(-c4cc(Cl)c(C)cc4O)c3C2c2ccccc2F)cc1 (centres unmarked) [MMV396717]	R	–
O=C(Nc1ccc(-c2nc3cc4ccccc4cc3[nH]2)cc1)c1cccc(Br)c1 [MMV019241]	R	–
Cc1cccc(-n2ncc3c(O)nc(-n4nc(C)cc4NC(=O)c4cc5ccccc5o4)nc32)c1 [MMV403679]	R	reduction of PfA-M1 activity [2]: 75%
Oc1c(C(Nc2ccccn2)c2cccc(Oc3ccccc3)c2)ccc2cccnc12 (centres unmarked) [MMV665814]	R	–
